Data on three molecules can be found in paper PMC11232401, “Characterization of antimalarial activity of artemisinin-based hybrid drugs” (Antimicrobial Agents and Chemotherapy, 2024).

Like-named read-outs stand apart in the source and are kept apart here.

Assay [1] relates to NF54 strain of P. falciparum. Description: Ring-stage-specific drug activity (pLDH). Type of assay: cell-based. The following applies: Plasmodium falciparum, median ± SEM. As for the experimental part: Each compound was dissolved in dimethyl sulfoxide (DMSO) and diluted in RPMI-1640 medium into seven different concentrations, which were tested against CQ-susceptible strains (NF54 or D10) or a CQ-resistant strain (W2). Each well of 96-well plates was filled with 100 µL drug and 100 µL parasitized RBC (asynchronous parasite culture), which were mixed to obtain a final parasitemia of 1.0% to 1.5% and 1.0% hematocrit. Plates were incubated for 72 h at 37°C in a standard gas mixture; then, parasite growth was determined by measuring the activity of the parasite lactate dehydrogenase (pLDH) ([38]). Briefly, at the end of incubation, the cultures were carefully resuspended, and 20 µL aliquots were removed and added to 100 µL Malstat reagent in a 96-well microplate. The Malstat reagent is made of 0.125% TritonX-100, 130 mM L-lactate, 30 mM Tris buffer, and 0.62 µM 3-acetylpyridine adenine dinucleotide. After that, 20 µL 1.9 µM nitro blue tetrazolium (NBT) and 0.24 µM phenazine ethyl sulfate were added to the plate. NBT was reduced to blueformazan and spectrophotometrically read at OD 650 nm using a Synergy 4 microplate reader (BioTek, Santa Clara, USA). […] IC50 values were expressed as means of two to three independent experiments, with each drug concentration in duplicate.
The NF54 strain of P. falciparum was employed to test the drugs’ activity against ring stages and asynchronous parasite culture (all stages). The ring stages were obtained by synchronization with D-Sorbitol using a standard method ([39]). Each well of 96-well plates was filled with 100 µL each drug and 100 µL culture containing ring-stage or asynchronous parasites, which were mixed to obtain a final parasitemia of 1.0% to 1.5% and 1.0% hematocrit. […] Plates were processed using the pLDH method, and IC50 values were calculated as described above. At least two to three independent experiments were performed, using two technical replicates.
^[a] Synchronized ring-stage parasites were incubated in the presence of compounds for 6 h, drugs were removed by washing, and plates were incubated for an additional 66 h. ^[b] Asynchronous parasites were incubated in the presence of compounds for 6 h, drugs were removed by washing, and plates were incubated for an additional 66 h. ^[c] Asynchronous parasites were incubated in the presence of compounds for 72 h. ^[a,b^] Experiments were performed in parallel. ^[d] […] Parasite viability was determined by parasite lactate dehydrogenase. Data are from three experiments performed in duplicate. MFQ = mefloquine; DHA = dihydroartemisinin; SEM = standard error of the mean.

Assay [2] deals with 3D7 strain of P. falciparum. Description: Host cell-mediated drug degradation: antiplasmodial activity of uRBC supernatants. The following applies: for IC50: Plasmodium falciparum, 3D7, 0.16 h, 500 nM drug, 3D7, SYBR Green I, median ± SEM (AQ mean, 95% CI), read-out: IC50 of supernatants harvested at 0.16 h; for Fold changes (24 h/0.16 h): 3D7, ratio of IC50 at 24 h to IC50 at 0.16 h. Type of assay: cell-based, Plasmodium falciparum. As for the experimental part:
Each well of 96-well plates was filled with 125 µL drug (1000 nM) and 125 µL uninfected red blood cells (uRBC), which were mixed to obtain a final drug concentration of 500 nM and 2.5% or 1.0% hematocrit. The plates were incubated at 37°C in the standard gas mixture. After each time point (10 min, 6 h, and 24 h), supernatants were carefully harvested and stored at −80°C until use. […] Next, supernatants were diluted in a complete medium in six different dilutions and were aliquoted in new plates. The antimalarial activity of these supernatants and freshly dissolved drugs was determined in an asynchronous parasite culture of P. falciparum (3D7, D10, and W2 strains) for 72 h using the same method described above, and parasite viability was assessed by the pLDH ([38]) and SYBR Green I ([41]) methods. Only the experiments where the IC50 values of the supernatants harvested at 10 min were the same as those of the respective fresh drugs were considered for determining equivalent drug concentration. […] Decay in drug concentration was estimated by using the normalized slope values calculated from linear regression fits using the slope values of a standard curve as reference. Three independent experiments were performed using two replicates.
Figure S5: Data associated to Figure 3 in the main text of the manuscript. Panel A: Representative response-concentration curves of the antiplasmodial activity of supernatant-derived uRBC (2.5% hematocrit) harvested at indicated times (0.16, 6, and 24 h). Drug activity on parasite viability was determined 72 h after parasite incubation (3D7 strain, asynchronous). Values were subtracted from control (without treatment), transformed, and normalized to calculate nonlinear fit. Parasite viability was determined by SYBR Green I. Values are mean and error bars are the standard deviation of a single experiment, each concentration in duplicate. […] Footnotes: ^[a] Parasite viability was determined by SYBR Green I. ^[b^] Parasite viability was determined by pLDH readout. Values are median ± SEM of three independent experiments, each concentration in duplicate. ^[c^] […] These values are expressed as mean and 95% confidence interval (CI) of one experiment, each concentration in duplicate. […] Unpaired two-tailed t-test at 95% CI: *p <0.05; **p <0.01.

The subject of assay [3] is F32-TEM (sensitive) early ring-stage parasites. Description: Ring-stage survival assay (RSA0-3h). Type of assay: cell-based, Plasmodium falciparum. As to conditions: 700 nM, 6 h pulse, 66 h growth. As to the method: Early ring-stage parasites (0–3 h post-invasion) of F32-ART and F32-TEM strains highly synchronized by Percoll-Sorbitol treatment were exposed to 700 nM of the drugs or 0.1% DMSO (control) for 6 h. Each drug was tested in duplicate. Parasite pellets were then washed in RPMI-1640 medium before being placed in drug-free culture conditions with 10% human serum and incubated for 66 h ([44]). Survival rates were assessed microscopically by two independent microscopists by counting the parasites in 10,000 RBCs. Three independent experiments were performed.

Setting [4] is: asynchronous parasites, 6 h drug, wash, additional 66 h, read-out: IC50, Asynchronous.
Setting [5] is: asynchronous parasites, 72 h continuous drug, read-out: IC50, 72 h.
Setting [6] is: synchronized ring stages, 6 h drug, wash, additional 66 h, read-out: IC50, Ring stages.

`COCCOCCOCCOCCn1c(-c2ccc(-n3cc(-c4ccc(OC5OC6OC7(C)CCC8C(C)CCC(C5C)C68OO7)cc4)nn3)cc2)nc2ccccc21` (stereo not shown) [Hybrid 1]: the IC50 (usually the concentration that inhibits the measured activity by half) amounted to 3.5 ± 0.3 nM in assay [1] (setting [4]), 3 ± 0.3 nM in assay [1] (setting [5]), 1.5 ± 0.3 nM in assay [1] (setting [6]) and 1.3 ± 0.44 nM in assay [2] (uRBC 2.5% hematocrit). Besides, the “Fold changes (24 h/0.16 h)” value is listed as 1.0 ± 0.23 in assay [2] (uRBC 1.0% hematocrit); 3 in assay [2] (uRBC 2.5% hematocrit); 3.6 ± 0.8 in assay [2] (uRBC 2.5% hematocrit, listed as LH70 (1)). The “Survival rate (%) from the RSA0-3h, F32-TEM (sensitive)” value (shortened to “Survival rate (%) from the RSA0-3h”) in assay [3] was found to be 0.05 ± 0.03%.
In the case of `C[C@H]1[C@@H](O)O[C@@H]2O[C@@]3(C)CC[C@H]4[C@H](C)CC[C@@H]1[C@@]24OO3` [DHA, dihydroartemisinin, reference compound], the IC50 in assay [1] (setting [4]) was 4.6 ± 0.9 nM; in assay [1] (setting [5]), 2.1 ± 0.6 nM; in assay [1] (setting [6]), 5 ± 0.5 nM; in assay [2] (uRBC 1.0% hematocrit), 4.5 ± 1.1 nM; in assay [2] (uRBC 2.5% hematocrit), 6.7 ± 2.5 nM. The “loss in supernatant activity, supernatant harvested at 6 h” value in assay [2] (high hematocrit (2.5%)) was “fourfold”. In assay [2] (low hematocrit (1%)), the “loss in antiplasmodial activity of supernatants harvested at 6 h” value turned out to be 2 fold. Also, in assay [3], the “Survival rate (%) from the RSA0-3h” value turned out to be 0.04 ± 0.03%.
As for `CC1CCC2C(C)C(OC(=O)CCC(=O)OCCNc3ccnc4cc(Cl)ccc34)OC3OC4(C)CCC1C32OO4` (stereo not shown) [Hybrid 2], the IC50 in assay [1] (setting [4]) was determined as 19.1 ± 1.8 nM; in assay [1] (setting [5]), 8.1 ± 1 nM; in assay [1] (setting [6]) it was 9 ± 1.5 nM; in assay [2] (uRBC 1.0% hematocrit), 3.4 ± 0.33 nM; in assay [2] (uRBC 2.5% hematocrit) it was 2.8 ± 0.51 nM. Also, the “Fold changes (24 h/0.16 h)” value was 1.1 ± 0.31 in assay [2] (uRBC 1.0% hematocrit); 10 in assay [2] (uRBC 2.5% hematocrit); 10.7 ± 4.1 in assay [2] (uRBC 2.5% hematocrit, listed as 163A (2)). The “Survival rate (%) from the RSA0-3h” value in assay [3] stood at 0.04 ± 0.02%.
